Data set [1] can be described thus: Pharmacokinetics in monkeys, single IV / oral dose. The format is in vivo. The method, then:
(§1) The pharmacokinetics of Compound 2R (HCl salt) and Comparative Compound 2 were studied following a single intravenous and/or oral administration to mice, dogs, and monkeys (n=3 for all species). The IV and PO solution formulations for Comparative Compound 2 contained 20% (w/v) propylene glycol, 75% (w/v) 50 mM trisodium phosphate (pH 12), and 5% (w/v) Kolliphor EL. The formulation for Compound 2R contained 1:2 propylene glycol: 1% Tween 80/Na3PO4 (50 mM). Subsequent pharmacokinetic data analysis was performed using non-compartmental analysis modules in Phoenix/WINNONLIN 6.3 (Pharsight, St. Louis, Missouri, USA), and the linear trapezoidal rule was used for AUC calculation. Terminal elimination half-life (t½) was calculated based on data points (≥3) in the terminal phase; Tmax=Time of maximum observed concentration; AUClast/D=Area under the concentration-time curve from time zero to the last observed concentration/divided by dose; Cl_obs=Total body clearance; Cmax=maximum observed concentration; F=bioavailability of oral dose form. Blood samples were assayed for compounds using protein precipitation with acetonitrile followed by HPLC/MS/MS analysis. Blood concentration-time data were analyzed by non-compartmental methods.

Data set [2] in a line: Tolerability in the xenograft studies. The format is in vivo. The note with it: highest dose tested 100 mg/kg, daily dosing over >50 days, all xenograft studies. On the procedure:
Xenograft Studies. Female NCR nude mice (CrTac:NCr-Foxn1mu from Taconic), 6-7 weeks old, were implanted subcutaneously with 5×10^6 cells in a […] serum-free media/Matrigel® mixture into the region of the right axilla, Mice were randomized into treatment groups and treatments initiated when tumors reached 100 to 200 mg. Compound 2R was administered daily by oral gavage as a fine suspension in 1:2 propylene glycol in 1% Tween80, Na3PO4 based upon individual animal body weight (0.2 mL/20 g). Subcutaneous tumor volume and body weights were measured two to three times a week. Tumor volumes were calculated by measuring two perpendicular diameters with calipers and using the formula: tumor volume=(length×width2)/2. Individual mice were dosed daily until their tumor burden reached 500 mg for the CAL-27 and HCC-70 models or 1000 mg for the CAL-33 model, to allow for calculation of increase in progression-free survival. Percent increase in survival was calculated by comparing the median time to reach either 500 mg or 1000 mg in the treated group versus the vehicle control group. A complete response (CR) is defined as a tumor below the limits of palpation ([…]).

Data set [3] can be described thus: Pharmacokinetics in mice, single IV / oral dose. The format is in vivo. The method, then:
as §1

A short description of data set [4]: Pharmacokinetics in dogs, single IV / oral dose. It counts as in vivo. The method, then:
as §1

Data set [5] can be described thus: Solubility determination (PBS 7.4, SIF, SGF). The note with it: kinetic from dmso stock. The format is physicochemical. The method, then:
Preparation of stock solutions: The stock solutions of test compounds and control compound diclofenac were prepared in DMSO at the concentrations of 10 mM.
Simulated Gastric Fluid (SGF): An aqueous mixture including hydrochloric acid, sodium chloride, and pepsin (pH=1.2).
Simulated Intestinal Fluid (SIF): Prepared by dissolving 6.8 g of KH2PO4 into about 500 mL ultrapure water and adjust the solution to a pH 6.8 with 0.1 M NaOH. 10 g trypsin is then dissolved into ultrapure water. The two solutions are mixed well and diluted with ultrapure water to a final volume of 1000 mL.
485 μL of (SIF, SGF, PBS 7.4, FESSIF, or FESSGF) was added into each vial of the cap-less Solubility Sample plate. The assay was performed in duplicate. Add one stir stick to each vial and seal using a molded PTFE/Silicone plug. […] After completion of the 2 hours, plugs were removed and the stir sticks were removed using a big magnet, the samples from the Solubility Sample plate were transferred into the filter plate. Using the Vacuum Manifold, all the samples were filtered. Aliquot of 5 μL and 5 μL DMSO were taken from the filtrate followed by addition of 490 μL of a mixture of H2O and acetonitrile containing internal standard (1:1). A certain proportion of ultrapure water was used to dilute the diluent according to the peak shape. The dilution factor was changed according to the solubility values and the LC-MS signal response.
Preparation of 300 μM standards (STD): From the 10 mM DMSO STD plate, 6 μL was transferred into the remaining empty plate, and then 194 μL of DMSO was added to that plate to have a STD concentration of 300 μM. From the 300 μM DMSO STD plate, 5 μL DMSO STD and 5 μL SIF was transferred into the remaining empty plate, and then 490 μL of a mixture of H2O and acetonitrile containing internal standard (1:1) was added to that plate to have a final STD concentration of 3 μM. A certain proportion of ultrapure water was used to dilute the diluent according to the peak shape. The concentrations of the standard samples were changed according to the LC-MS signal response.
Procedure for sample analysis: The plate was placed into the well plate autosampler. The samples were evaluated by LC-MS/MS analysis.
Data analysis: All calculations were carried out using Microsoft Excel. The filtrate was analyzed and quantified against a standard of known concentration using LC coupled with mass spectral peak identification and quantitation. Solubility values of the test compound and control compound were calculated as follows: […]
Any value of the compounds that was not within the specified limits was rejected and the experiment was repeated.

The target of data set [6] is PI3Ka (Homo sapiens, UniProt P42336). As to the kind of experiment: Z′-LYTE / ADAPTA kinase assay, PI3Ka. The note with it: for inhibition at 0.1 µM: read-out: PI3Ka % Inh. @100 nM. It counts as biochemical. From the text: The Z′-LYTE® biochemical assay employs a fluorescence-based, coupled-enzyme format and is based on the differential sensitivity of phosphorylated and non-phosphorylated peptides to proteolytic cleavage (FIG. 6). The peptide substrate is labeled with two fluorophores—one at each end—that make up a FRET pair. In the primary reaction, the kinase transfers the gamma-phosphate of ATP to a single tyrosine, serine or threonine residue in a synthetic FRET-peptide. In the secondary reaction, a site-specific protease recognizes and cleaves non-phosphorylated FRET-peptides. Phosphorylation of FRET-peptides suppresses cleavage by the Development Reagent. Cleavage disrupts FRET between the donor (i.e., coumarin) and acceptor (i.e., fluorescein) fluorophores on the FRET-peptide, whereas uncleaved, phosphorylated FRET-peptides maintain FRET. A ratiometric method, which calculates the ratio (the Emission Ratio) of donor emission to acceptor emission after excitation of the donor fluorophore at 400 nm, is used to quantitate reaction progress.
A significant benefit of this ratiometric method for quantitating reaction progress is the elimination of well-to-well variations in FRET-peptide concentration and signal intensities. As a result, the assay yields very high Z′-factor values (>0.7) at a low percent phosphorylation.
Both cleaved and uncleaved FRET-peptides contribute to the fluorescence signals and therefore to the Emission Ratio. The extent of phosphorylation of the FRET-peptide can be calculated from the Emission Ratio.
Enzyme: The ADAPTA universal kinase assay is a homogenous, fluorescent based immunoassay for the detection of ADP. In contrast to ATP depletion assays, the ADAPTA assay is extremely sensitive to ADP formation such that a majority of the signal change occurs in the first 10-20% conversion of ATP to ADP. This makes the ADAPTA universal kinase assay ideally suited for use with low activity kinases.
The principle of the ADAPTA universal kinase assay is outlined below. The assay itself can be divided into two phases: a kinase reaction phase, and an ADP detection phase. In the kinase reaction phase, all components required for the kinase reaction are added to the well, and the reaction is allowed to incubate for 60 minutes. After the reaction, a detection solution consisting of a europium labeled anti-ADP antibody, an AlexaFluor® 647 labeled ADP tracer, and EDTA (to stop the kinase reaction) is added to the assay well. ADP formed by the kinase reaction (in the absence of an inhibitor) will displace the Alexa Fluor®647 labeled ADP tracer from the antibody, resulting in a decrease in the TR-FRET signal.
Test Compounds: The Test Compounds are screened in 1% DMSO (final) in the well. For 10 point titrations, 3-fold serial dilutions are conducted from the starting concentration.
Peptide/Kinase Mixtures: All Peptide/Kinase Mixtures are diluted to a 2× working concentration in the appropriate Kinase Buffer.
ATP Solution: All ATP Solutions are diluted to a 4× working concentration in Kinase Buffer (50 mM HEPES pH 7.5, 0.01% BRIJ-35, 10 mM MgCl2, 1 mM EGTA). ATP Km apparent is previously determined using a Z′-LYTE® assay.
Development Reagent Solution: The Development Reagent is diluted in Development Buffer.
10× Novel PKC Lipid Mix: 2 mg/mL Phosphatidyl Serine, 0.2 mg/mL DAG in 20 mM HEPES, pH 7.4, 0.3% CHAPS. For 5 mL 10× Novel PKC Lipid Mix: 1. Add 10 mgs Phosphatidyl Serine (Avanti Polar Lipids Part #8400032C or 840039C) and 1 mg DAG (Avanti Polar Lipids Part #800811 C) to a glass tube. 2. Remove the chloroform from lipid mixture by evaporating to a clear, thin film under a stream of nitrogen. Continuous rotation of the tube, at an angle to ensure maximum surface area of the lipid solution, will promote the thinnest film. 3. Add 5 mLs resuspension buffer, 20 mM HEPES, 0.3% CHAPS, pH 7.4, to the dried lipid mix 4. Heat gently to 50-60° C. for 1-2 minutes and vortex in short intervals until the lipids are dissolved to a clear or slightly hazy solution. […]

Broadly, the solubility is the concentration that dissolves in the medium under given conditions. One may read the IC50 as the concentration that gives 50% inhibition. Read a high IC50 as a need for much substance.

Read-outs that look alike come from different tables or passages of the source. A value given as a limit tells only on which side of the number the result lay.

PI3Ka, sequence (P42336 whole entry): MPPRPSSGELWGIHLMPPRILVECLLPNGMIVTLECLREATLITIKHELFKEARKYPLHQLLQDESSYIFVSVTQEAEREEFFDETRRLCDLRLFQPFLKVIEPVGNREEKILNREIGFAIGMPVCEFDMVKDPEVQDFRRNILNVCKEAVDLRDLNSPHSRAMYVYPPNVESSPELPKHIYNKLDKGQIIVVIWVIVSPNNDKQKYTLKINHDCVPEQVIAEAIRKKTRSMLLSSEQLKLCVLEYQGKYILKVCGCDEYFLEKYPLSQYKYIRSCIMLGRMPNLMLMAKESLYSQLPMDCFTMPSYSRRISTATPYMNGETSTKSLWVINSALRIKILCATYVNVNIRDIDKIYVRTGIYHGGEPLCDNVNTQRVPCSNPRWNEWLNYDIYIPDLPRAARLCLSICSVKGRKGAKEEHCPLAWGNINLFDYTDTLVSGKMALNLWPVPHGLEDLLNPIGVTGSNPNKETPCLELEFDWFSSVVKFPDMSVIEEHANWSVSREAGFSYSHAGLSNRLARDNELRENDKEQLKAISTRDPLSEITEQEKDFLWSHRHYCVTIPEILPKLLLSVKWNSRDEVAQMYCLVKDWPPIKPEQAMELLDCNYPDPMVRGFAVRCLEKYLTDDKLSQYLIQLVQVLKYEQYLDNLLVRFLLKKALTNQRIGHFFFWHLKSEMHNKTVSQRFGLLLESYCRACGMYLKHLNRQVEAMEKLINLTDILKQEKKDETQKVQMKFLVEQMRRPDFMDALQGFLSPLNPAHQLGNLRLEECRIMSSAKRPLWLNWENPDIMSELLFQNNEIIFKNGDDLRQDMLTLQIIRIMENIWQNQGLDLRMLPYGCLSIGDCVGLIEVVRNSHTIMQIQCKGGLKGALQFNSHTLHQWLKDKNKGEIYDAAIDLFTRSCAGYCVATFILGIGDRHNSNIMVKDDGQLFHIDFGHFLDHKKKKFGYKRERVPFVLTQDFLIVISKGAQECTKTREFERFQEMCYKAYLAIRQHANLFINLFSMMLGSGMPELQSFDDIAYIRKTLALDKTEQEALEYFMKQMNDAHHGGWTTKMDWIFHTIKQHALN
PI3Ka, sequence (P27986 whole entry partner): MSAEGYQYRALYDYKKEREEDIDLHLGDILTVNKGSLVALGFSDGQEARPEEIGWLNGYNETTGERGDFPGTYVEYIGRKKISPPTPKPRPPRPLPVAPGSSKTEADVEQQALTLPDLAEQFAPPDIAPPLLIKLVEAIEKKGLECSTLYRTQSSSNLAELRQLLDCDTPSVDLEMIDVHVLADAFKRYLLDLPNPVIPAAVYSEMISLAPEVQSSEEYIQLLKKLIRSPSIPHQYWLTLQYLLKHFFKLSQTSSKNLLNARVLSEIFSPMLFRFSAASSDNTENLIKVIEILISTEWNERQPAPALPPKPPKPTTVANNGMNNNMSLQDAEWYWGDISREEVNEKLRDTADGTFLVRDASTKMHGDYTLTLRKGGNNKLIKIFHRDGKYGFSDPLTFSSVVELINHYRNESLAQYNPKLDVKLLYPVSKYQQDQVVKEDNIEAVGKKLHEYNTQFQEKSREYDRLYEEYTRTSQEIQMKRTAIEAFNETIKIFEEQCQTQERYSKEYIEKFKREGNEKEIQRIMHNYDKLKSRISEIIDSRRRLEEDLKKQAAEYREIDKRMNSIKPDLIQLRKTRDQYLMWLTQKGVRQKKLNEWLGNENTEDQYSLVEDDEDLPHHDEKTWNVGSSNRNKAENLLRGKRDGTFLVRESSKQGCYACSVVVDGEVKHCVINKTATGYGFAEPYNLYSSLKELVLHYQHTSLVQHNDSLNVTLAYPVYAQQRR

`C[C@@H](Nc1ncnc2ccc(-c3cnc(Cl)c(NS(C)(=O)=O)c3)cc12)c1ccccc1` [Compound 2R, N-(2-chloro-5-(4-((1R-phenylethyl)amino)quinazolin-6-yl)pyridin-3-yl)methanesulfonamide]: the figures for the “increase in exposure (AUClast/D) vs Comparative Compound 2” value in data set [1] (IV), in data set [3] (IV) and in data set [4] (IV) were ~3 fold, ~3 fold and ~15 fold, respectively. In addition, the “improvement in exposure (AUClast/D) vs Comparative Compound 2” value in data set [1] (oral) was > 74 fold; in data set [4] (oral), > 28 fold. Further, the “Tolerability (body weight loss, clinical signs)” value in data set [2] is given as “well tolerated”. In addition, in data set [3] (oral), the “enhanced exposure (AUClast/D) relative to Comparative Compound 2” value stood at 3 fold.
Consider `C[C@@H](Nc1c(C#N)cnc2ccc(-c3cnc(Cl)c(NS(C)(=O)=O)c3)cc12)c1ccccc1` [Compound 48R, N-(2-chloro-5-(3-cyano-4-((1R-phenylethyl)amino)quinolin-6-yl)pyridin-3-yl)methanesulfonamide], for which the solubility at 2 h in data set [5] (aqueous buffer, PBS pH 7.4, 25° C., read-out: Solubility pH 7.4 PBS buffer) is ≤ 20 µM; in data set [5] (simulated gastric fluid (SGF), simulated gastric fluid pH 1.2, 25° C., read-out: Solubility SGF) it was > 200 µM; in data set [5] (simulated intestinal fluid (SIF), fassgf or other biorelevant, simulated intestinal fluid pH 6.8, 25° C., read-out: Solubility SIF) it was ≤ 20 µM. Moreover, the IC50 in data set [6] is 2 to 20 nM.
For the compound `C[C@H](Nc1c(C#N)cnc2ccc(-c3cnc(Cl)c(NS(C)(=O)=O)c3)cc12)c1ccccc1` [Compound 48S, N-(2-chloro-5-(3-cyano-4-((1S-phenylethyl)amino)quinolin-6-yl)pyridin-3-yl)methanesulfonamide], the IC50 in data set [6] was < 2 nM.
Consider `C[C@@H](Nc1c(C#N)cnc2ccc(-c3cnc(Cl)c(NS(C)(=O)=O)c3)cc12)c1ccc(F)cc1` [Compound 97R, N-[2-chloro-5-[3-cyano-4-[[(1R)-1-(4-fluorophenyl)ethyl]amino]-6-quinolyl]-3-pyridyl]methanesulfonamide], for which the inhibition at 0.1 µM in data set [6] lay in the range of 80 to 90%.
On the same count and under the same terms, the value for `CS(=O)(=O)Nc1cc(-c2ccc3ncc(C#N)c(NC4c5ccccc5CC4O)c3c2)cnc1Cl` (stereo not drawn) [Compound 103, N-[2-chloro-5-[3-cyano-4-[(2-hydroxyindan-1-yl)amino]-6-quinolyl]-3-pyridyl]methanesulfonamide] was > 90%.
The same measure, in the same setting: the value for `CS(=O)(=O)Nc1cc(-c2ccc3ncc(C#N)c(NC4(c5ccccc5)CC4)c3c2)cnc1Cl` [Compound 106, N-[2-chloro-5-[3-cyano-4-[(1-phenylcyclopropyl)amino]-6-quinolyl]-3-pyridyl]methanesulfonamide] was > 90%.

The values are drawn from patent US20240239764A1, “SUBSTITUTED AMINOBENZYL HETEROARYL COMPOUNDS AS EGFR AND/OR PI3K INHIBITORS” (Mekanistic Therapeutics, priority 2020, published 2024).
